In patent publication US20260132165A1, “MODIFIED NUCLEOSIDE ANALOGUE AND USE THEREOF, AND NUCLEOSIDE ANALOGUE-CONTAINING DOUBLE-STRANDED OLIGONUCLEOTIDE AND USE THEREOF” (RIGERNA THERAPEUTICS (BEIJING) CO., LTD., priority 2023, published 2026):

What was measured:
target gene SOD1 [1] = test: Test Example 8: inhibitory activity on target gene SOD1 in adipose tissues in different parts of mice; type: in vivo, C57BL/6j mice; conditions: D14
Method: (§1) RNA extraction: the above tissue samples were taken out from the RNAlater, and smashed for 60 s in Tissuelyser type II full-automatic tissue homogenizer, and total RNAs of various tissue samples were extracted using the full-automatic nucleic acid extraction instrument and the nucleic acid extraction kit from Zhejiang Hanwei Science and Technology Co. Ltd. according to methods described in instructions.
(§2) Reverse transcription reaction: 1 μg of the extracted total RNAs of the tissue samples were taken, and configured into 20 μL of reverse transcription system according to a method described in kit instructions by using a reverse transcription kit (Reverse Transcription System, A3500) from Promega Corporation and selecting Oligo (dT)15 reverse transcription primers, and the reverse transcription reaction was completed. After the reaction was ended, 80 μL of RNase-Free water was added into the reverse transcription system to provide cDNA solution for Real-time PCR detection.
(§3) Real-time PCR detection: 20 μL of Real-time PCR reaction system per PCR detection well was configured according to a method described in kit instructions using SYBR™ Select Master Mix (Catalog number: 4472908) reagent from ABI company. Each detection system contained 5 μL of cDNA template obtained from the above reverse transcription reaction, 10 μL of SYBR™ Select Master Mix, 0.5 μL of 10 μM upstream primers, 0.5 μL of 10 μM downstream primers, and 4 μL of RNase-Free H2O. The configured reaction system was subjected to Real-time PCR amplification on ABI StepOnePlus PCR instrument by a three-step method, wherein an amplification procedure was pre-denaturation at 95° C. for 10 min, then denaturation at 95° C. for 30 s, annealing at 60° C. for 30 s, and extension at 72° C. for 30 s; and processes of denaturation, annealing, and extension were repeated for 40 cycles. Gene expression differences were calculated by the ΔΔCt method after completion of the procedure.
(§4) In the real-time fluorescence quantitative PCR method, relative quantitative calculation of remaining expression level and inhibition rate of gene mRNA of interest in various test groups was performed by the ΔΔCt method, and the calculation method is as follows:
The present test example evaluated, by an evaluation method for inhibitory activity on a target gene in mice, the inhibitory activity of siRNA sequence RZ899090 with the sense strand with the NM073 conjugation at Position 4, siRNA sequence RZ899091 with the sense strand with the NM074 conjugation at Position 4, siRNA sequence RZ899078 with the sense strand with the NM202 conjugation at Position 6 and siRNA reference sequence RZ899093 with the sense strand with the Uhd conjugation at Position 4, siRNA reference sequence RZ899076 with the sense strand with the NM200 conjugation at Position 4 on the target gene SOD1 in adipose tissues of interest in mice.
(§5) 6-8 Week-old C57BL/6j mice were randomly grouped by body weight, 5 per group, 6 groups in total. Mice in each group were dosed with the above siRNA conjugates by tail vein injection, with an administration dose of 5 mg/kg per mouse, and an administration volume of 150 μL. PBS control group was administered with the same volume of siRNA conjugate-free PBS solution. The day of administration was recorded as D0, and 5 mice in each group were sacrificed on D14 after administration. Paragonadal fat, abdominal subcutaneous fat, and brown fat on back were respectively taken. RNA extraction, reverse transcription, and real-time fluorescence quantitative detection were performed on various tissues according to the above method, and gene expression differences were calculated by the above ΔΔCt method.

target gene SOD1 [2] = test: Test Example 6: inhibitory activity of NM073, NM074 conjugated siRNA sequences on SOD1 by intrathecal administration to rats; type: in vivo, SD rats; conditions: D28
Method: 6-8 Week-old SD rats were randomly grouped by body weight. Rats in each group were administered with siRNA by intrathecal administration, with an administration dose of 900 μg per rat. Injection was administered from rat spinal cord L5-L6, with an administration volume of 40 μL. Needle was retained for 2 min after completion of injection, and then slowly withdrawn. PBS control group was administered with the same volume of siRNA conjugate-free PBS solution. The day of administration was recorded as 0 day (D0), and the rats were sacrificed at observation point after administration. Different segments of spinal cord and different regions of brain were respectively taken and stored in the RNAlater.
as §1, §2, §3, §4
The present test example evaluated, by an evaluation method for inhibitory activity on a target gene by intrathecal administration to rats, the inhibitory activity of siRNA sequence RZ899090 with the NM073 conjugation at Position 4, siRNA sequence RZ899091 with the NM074 conjugation at Position 4 and siRNA control sequence RZ899093 with the Uhd conjugation on the target gene SOD1 of interest in spinal cord and brain of rats. The above conjugation vectors were different in that NM073 was C18 aliphatic chain and NM074 was C20 aliphatic chain.
6-8 Week-old SD rats were randomly grouped by body weight, 5 per group, 4 groups in total. Rats in each group were dosed with the above siRNA conjugates by intrathecal administration, with an administration dose of 900 μg per rat, and an administration volume of 40 μL. PBS control group was administered with the same volume of siRNA conjugate-free PBS solution. The day of administration was recorded as D0, and the rats were sacrificed on D28 after administration. […]

target gene SOD1 [3] = test: Test Example 9: inhibitory activity of lipid conjugated siRNA sequences on SOD1 in mouse muscle tissues; type: in vivo, C57BL/6j mice; conditions: D14
Method: as §1, §2, §3, §4
The present test example evaluated, by an evaluation method for inhibitory activity on a target gene in mice, the inhibitory activity of siRNA sequence RZ899090 with the sense strand with the NM073 conjugation at Position 4, siRNA sequence RZ899091 with the sense strand with the NM074 conjugation at Position 4, siRNA sequence RZ899078 with the sense strand with the NM202 conjugation at Position 6 and siRNA reference sequence RZ899093 with the sense strand with the Uhd conjugation at Position 4, siRNA reference sequence RZ899076 with the sense strand with the NM200 conjugation at Position 4 on the target gene SOD1 of interest in muscle tissues in different parts of mice.
as §5, with “Tissues such as left hind leg quadriceps muscle, diaphragm,” for “Paragonadal fat, abdominal subcutaneous fat,”, “heart tissues” for “brown fat on back”, “taken and stored in the RNAlater.” for “taken.”

RZ899091: siRNA sequence with the sense strand with the NM074 (C20) conjugation at Position 4; SEQ ID NO: 16 / 23 (sense UUUNAAUCCUCACUCUAAA; antisense UUUAGAGUGAGGAUUAAAAUG; NM074 (C20) conjugate at sense position 4; modified_base 1..2 OTHER; 2'-methoxy and 5'-thiophosphate modified nucleotides; modified_base 3 OTHER; 2'-methoxy modified nucleotide; modified_base 4 OTHER; n is the synthetic nucleotide analog NM074 as described in the disclosure.; modified_base 5..6 OTHER; 2'-methoxy modified nucleotides; modified_base 7..10 OTHER; 2'-fluoro modified nucleotides; modified_base 11..19 OTHER; 2'-methoxy modified ; modified_base 1 OTHER; 2'-methoxy and 5'-thiovinylphosphonate modified nucleotide; modified_base 2 OTHER; 2'-fluoro and 5'-thiophosphate modified …)
Subcutaneous fat % Mean value of inhibition rate (target gene SOD1 [1]; abdominal subcutaneous fat, tail vein injection 5 mg/kg): 67.17%
Brown fat on back % Mean value of inhibition rate (target gene SOD1 [1]; brown fat on back, tail vein injection 5 mg/kg): 80.97%
inhibitory activity compared with the NM200 conjugated reference sequence RZ899076 (target gene SOD1 [1]; paragonadal fat and brown fat on back, tail vein 5 mg/kg): equivalent or superior inhibitory activity
Paragonadal fat % Mean value of inhibition rate (target gene SOD1 [1]; paragonadal fat, tail vein injection 5 mg/kg): 75.20%
inhibitory action on the target gene compared with RZ899076 (target gene SOD1 [1]; subcutaneous fat, tail vein 5 mg/kg): substantially comparable
Cerebellum % Mean value of inhibition rate (target gene SOD1 [2]; cerebellum, intrathecal, 900 μg per rat): 73.86%
Cortex % Mean value of inhibition rate (target gene SOD1 [2]; cerebral cortex, intrathecal, 900 μg per rat): 28.78%
Hippocampus % Mean value of inhibition rate (target gene SOD1 [2]; hippocampus, intrathecal, 900 μg per rat): 70.69%
level of inhibition on the target gene compared with the Uhd control conjugate (RZ899093) (target gene SOD1 [2]; intrathecal 900 μg per rat): superior level of inhibition on the target gene in the spinal cord segment, cerebellum, and hippocampus
Cervical segment % Mean value of inhibition rate (target gene SOD1 [2]; spinal cord cervical segment, intrathecal, 900 μg per rat): 92.15%
Lumbar segment % Mean value of inhibition rate (target gene SOD1 [2]; spinal cord lumbar segment, intrathecal, 900 μg per rat): 95.17%
Thoracic segment % Mean value of inhibition rate (target gene SOD1 [2]; spinal cord thoracic segment, intrathecal, 900 μg per rat): 98.15%
Diaphragm % Mean value of inhibition rate (target gene SOD1 [3]; diaphragm, tail vein injection 5 mg/kg): 39.22%
inhibitory activity compared with the NM200 conjugated reference sequence RZ899076 (target gene SOD1 [3]; heart tissues, tail vein 5 mg/kg): superior inhibitory activity
Heart % Mean value of inhibition rate (target gene SOD1 [3]; heart, tail vein injection 5 mg/kg): 76.73%
Left quadriceps muscle % Mean value of inhibition rate (target gene SOD1 [3]; left hind leg quadriceps muscle, tail vein injection 5 mg/kg): 33.02%
inhibitory action on the left quadriceps muscle and diaphragm (target gene SOD1 [3]; left quadriceps muscle and diaphragm, tail vein 5 mg/kg): certain inhibitory action
